Measurements published in article PMC8126654, “Novel Pan-Pim Kinase Inhibitors With Imidazopyridazine and Thiazolidinedione Structure Exert Potent Antitumor Activities” (Frontiers in Pharmacology, 2021).

Target: T1, FLT3 (Homo sapiens, UniProt P36888)
T1 construct: purchased Life Technologies; Thermo Fisher Scientific Inc
T1 sequence (P36888 27-993): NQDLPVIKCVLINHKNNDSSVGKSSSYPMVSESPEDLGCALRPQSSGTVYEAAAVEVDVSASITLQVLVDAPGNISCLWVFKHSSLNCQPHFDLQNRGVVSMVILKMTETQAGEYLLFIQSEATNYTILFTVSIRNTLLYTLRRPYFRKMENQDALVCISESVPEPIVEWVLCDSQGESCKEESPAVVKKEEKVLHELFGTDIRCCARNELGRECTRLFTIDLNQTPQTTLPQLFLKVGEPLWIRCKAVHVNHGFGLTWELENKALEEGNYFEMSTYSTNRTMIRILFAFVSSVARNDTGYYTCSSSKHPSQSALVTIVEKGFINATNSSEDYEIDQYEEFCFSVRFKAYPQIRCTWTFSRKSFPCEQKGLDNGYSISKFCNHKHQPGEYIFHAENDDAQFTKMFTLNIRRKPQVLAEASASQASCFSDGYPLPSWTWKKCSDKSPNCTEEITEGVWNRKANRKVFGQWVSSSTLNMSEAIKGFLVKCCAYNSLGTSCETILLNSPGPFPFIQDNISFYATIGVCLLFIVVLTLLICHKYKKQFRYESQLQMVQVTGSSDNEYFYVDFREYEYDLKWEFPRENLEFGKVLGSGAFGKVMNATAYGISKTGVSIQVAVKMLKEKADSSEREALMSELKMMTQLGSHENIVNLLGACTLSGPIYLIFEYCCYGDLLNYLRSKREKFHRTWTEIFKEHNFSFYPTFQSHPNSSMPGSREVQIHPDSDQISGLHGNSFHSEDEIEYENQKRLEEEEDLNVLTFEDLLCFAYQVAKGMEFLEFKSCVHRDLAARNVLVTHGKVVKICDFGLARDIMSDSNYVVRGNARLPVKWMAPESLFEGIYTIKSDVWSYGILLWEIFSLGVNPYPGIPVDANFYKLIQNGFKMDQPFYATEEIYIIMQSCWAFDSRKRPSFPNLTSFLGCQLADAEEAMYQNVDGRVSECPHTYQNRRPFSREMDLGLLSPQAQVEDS
Assay: FLT3 kinase activity assay (FRET-based Z'-LYTE)
Type: biochemical
Details: ATP 500 µM; read-out: IC50 against FLT3 kinase
Procedure: The inhibition ratios of test compounds for Pim-1, 2 (Life Technologies; Thermo Fisher Scientific Inc., MA, United States), 3 (Merck KgaA), and FLT3 (Life Technologies; Thermo Fisher Scientific Inc., MA, United States) were determined using a modified FRET-based Z′-LYTE kinase assay kit (Invitrogen; Thermo Fisher Scientific Inc.). The Ser/Thr 7 peptide and Tyr-2 peptide were used as substrates for Pim kinases and FLT3, respectively. The reactions were carried out in a 384-well plate with a 10 µL reaction volume per well containing 1 µM substrates in 50 mM HEPES buffer with pH 7.5, 0.01% BRIJ-35, 10 mM MgCl2, 1 mM EGTA, and an appropriate amount of kinases (Pim-1: 0.03 μg/ml, Pim-2: 0.2 μg/ml, Pim-3: 0.2 μg/ml, FLT3: 0.1 μg/ml) with test compounds. The final reaction concentrations of ATP were 400, 5, 100, and 500 µM for Pim-1, 2, 3, and FLT3 respectively. After 1 h incubation, reactions were developed and terminated, and fluorescence ratios were calculated following the manufacturer’s protocol.

`CN1CCN(c2ccc(-c3cnc4ccc(/C=C5\SC(=O)NC5=O)nn34)cc2)CC1` [YPC-21440, (Z)-5-([3-{4-(4-methylpiperazin-1-yl)phenyl}imidazo[1,2-b]pyridazin-6-yl]methylene)thiazolidine-2,4-dione] showed an IC50 of 390 nM.
